Laboratory results: ChEMBL document CHEMBL5584243, “Discovery of JNJ-74856665: A Novel Isoquinolinone DHODH Inhibitor for the Treatment of AML” (J Med Chem, 2024)

What was measured:
[1] = molecular target: T1, Aryl hydrocarbon receptor (Homo sapiens, UniProt P35869); assay: Activation of AhR (unknown origin) at 1 to 10 uM; settings: dose 1-10 µM
T1 sequence (P35869 whole entry): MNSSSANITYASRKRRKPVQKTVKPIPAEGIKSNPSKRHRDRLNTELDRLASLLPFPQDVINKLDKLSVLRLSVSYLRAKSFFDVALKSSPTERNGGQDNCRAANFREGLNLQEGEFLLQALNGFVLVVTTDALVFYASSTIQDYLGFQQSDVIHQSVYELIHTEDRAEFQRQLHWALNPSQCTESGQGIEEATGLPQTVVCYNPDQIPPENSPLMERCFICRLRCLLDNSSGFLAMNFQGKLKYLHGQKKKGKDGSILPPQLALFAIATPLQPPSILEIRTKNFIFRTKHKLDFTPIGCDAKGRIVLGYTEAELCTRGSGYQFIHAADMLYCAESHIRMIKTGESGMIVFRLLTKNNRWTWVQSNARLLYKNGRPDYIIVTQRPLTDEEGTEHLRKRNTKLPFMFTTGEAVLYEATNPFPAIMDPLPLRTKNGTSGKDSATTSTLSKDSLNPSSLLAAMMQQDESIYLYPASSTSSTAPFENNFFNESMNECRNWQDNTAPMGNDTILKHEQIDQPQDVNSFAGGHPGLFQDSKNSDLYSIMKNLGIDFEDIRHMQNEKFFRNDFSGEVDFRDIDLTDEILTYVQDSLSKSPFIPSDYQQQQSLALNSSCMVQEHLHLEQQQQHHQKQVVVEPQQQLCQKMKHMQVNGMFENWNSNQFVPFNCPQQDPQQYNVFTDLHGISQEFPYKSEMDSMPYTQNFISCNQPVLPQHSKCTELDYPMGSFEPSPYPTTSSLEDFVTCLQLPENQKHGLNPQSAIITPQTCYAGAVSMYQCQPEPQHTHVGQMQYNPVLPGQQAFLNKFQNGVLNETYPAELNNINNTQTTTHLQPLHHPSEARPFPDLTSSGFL

[2] = Metabolic stability in mouse liver microsomes assessed as half life incubated upto 60 mins in presence of NADPH by LC-MS/MS analysis; type: ADME, Microsome
[3] = Half life in human hepatocyte; type: ADME, cell-based; settings: hepatocytes
[4] = molecular target: T2, Dihydroorotate dehydrogenase (quinone), mitochondrial (Homo sapiens, UniProt Q02127); assay: Binding affinity to recombinant human DHODH assessed as half life
T2 sequence (Q02127 whole entry): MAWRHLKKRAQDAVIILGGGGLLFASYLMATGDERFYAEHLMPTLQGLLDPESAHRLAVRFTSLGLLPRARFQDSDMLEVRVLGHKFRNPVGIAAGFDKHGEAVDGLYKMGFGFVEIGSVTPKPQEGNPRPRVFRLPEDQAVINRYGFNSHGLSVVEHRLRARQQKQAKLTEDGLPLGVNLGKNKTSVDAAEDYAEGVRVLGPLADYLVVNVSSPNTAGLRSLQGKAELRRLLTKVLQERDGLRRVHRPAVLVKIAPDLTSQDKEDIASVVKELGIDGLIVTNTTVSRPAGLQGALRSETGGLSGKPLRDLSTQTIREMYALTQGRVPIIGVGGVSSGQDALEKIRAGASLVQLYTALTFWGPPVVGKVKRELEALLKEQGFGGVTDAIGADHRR

[5] = molecular target: T3, PXR (NR1I2) (Homo sapiens, UniProt O75469); assay: Activation of PXR (unknown origin) assessed as fold change at 1 uM relative to control; type: ADME; settings: read-out: FC
T3 sequence (O75469 whole entry): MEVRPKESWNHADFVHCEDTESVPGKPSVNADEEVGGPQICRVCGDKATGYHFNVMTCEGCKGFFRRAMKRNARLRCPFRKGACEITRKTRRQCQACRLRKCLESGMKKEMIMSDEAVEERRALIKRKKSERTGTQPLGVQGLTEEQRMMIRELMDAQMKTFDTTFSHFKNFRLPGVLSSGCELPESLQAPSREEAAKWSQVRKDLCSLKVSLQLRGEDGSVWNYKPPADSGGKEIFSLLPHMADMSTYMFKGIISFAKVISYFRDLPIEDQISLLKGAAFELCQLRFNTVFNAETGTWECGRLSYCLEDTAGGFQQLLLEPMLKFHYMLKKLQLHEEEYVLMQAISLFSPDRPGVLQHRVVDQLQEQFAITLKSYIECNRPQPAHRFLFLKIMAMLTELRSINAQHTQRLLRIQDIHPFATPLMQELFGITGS

[6] = Lipophilicity, logD of compound; type: physicochemical; settings: octanol/water
[7] = Toxicity in NSG mouse xenografted with human MOLM-13 cells assessed as change in body weight at 0.031 to 0.25 mg/kg,po administrated daily for 10 days relative to control; type: organism-based; settings: in vivo, 240 h, dose 0.031-0.25 mg/kg, time 10 day
[8] = Metabolic stability in rat liver microsomes assessed as half life incubated upto 60 mins in presence of NADPH by LC-MS/MS analysis; type: ADME, Microsome
[9] = Plasma protein binding in C57BL mouse at 1 uM incubated for 6.5 hrs by LC-MS/MS analysis; type: ADME, cell-free; settings: read-out: PPB (converted)
[10] = Metabolic stability in dog liver microsomes assessed as half life incubated upto 60 mins in presence of NADPH by LC-MS/MS analysis; type: ADME, Canis lupus familiaris, Microsome
[11] = Volume of distribution at steady state in cynomolgus monkey at 1 mg/kg,iv; type: ADME, organism-based, Macaca fascicularis; settings: in vivo, read-out: Vdss
[12] = molecular target: CYP3A4 (Homo sapiens, UniProt P08684); assay: Induction of CYP3A4 in cryopreserved human hepatocytes using midazolam as substrate assessed as fold change at 1 uM relative to control; type: ADME, cell-based, Hepatocyte; settings: probe midazolam, read-out: FC
CYP3A4, sequence (P08684 whole entry): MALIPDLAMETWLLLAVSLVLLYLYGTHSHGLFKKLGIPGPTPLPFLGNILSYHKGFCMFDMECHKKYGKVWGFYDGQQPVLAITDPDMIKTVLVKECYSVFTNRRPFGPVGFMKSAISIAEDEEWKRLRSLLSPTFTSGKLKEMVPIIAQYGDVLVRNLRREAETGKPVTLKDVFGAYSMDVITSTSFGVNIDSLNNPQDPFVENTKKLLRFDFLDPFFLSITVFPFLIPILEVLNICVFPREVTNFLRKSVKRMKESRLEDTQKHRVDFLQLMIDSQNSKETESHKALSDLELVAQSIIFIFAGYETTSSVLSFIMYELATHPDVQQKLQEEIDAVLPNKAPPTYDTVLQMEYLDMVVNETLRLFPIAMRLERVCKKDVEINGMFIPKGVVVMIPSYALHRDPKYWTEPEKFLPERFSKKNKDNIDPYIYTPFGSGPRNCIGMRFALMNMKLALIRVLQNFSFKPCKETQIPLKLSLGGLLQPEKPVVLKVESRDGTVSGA

[13] = Inhibition of Calcium ion channel (unknown origin); set-up: species or system Homo sapiens
[14] = AUC (0 to infinity) in cynomolgus monkey at 10 mg/kg,po; type: ADME, organism-based, Macaca fascicularis; settings: in vivo
[15] = Half life in rat hepatocyte; type: ADME, cell-based; settings: hepatocytes
[16] = Half life in C57BL mouse at 2 mg/kg,iv measured upto 24 hrs by LC-MS/MS analysis; type: ADME, organism-based; settings: in vivo
[17] = Clearance in cynomolgus monkey at 1 mg/kg,iv; type: ADME, organism-based, Macaca fascicularis; settings: in vivo
[18] = molecular target: T2, Dihydroorotate dehydrogenase (quinone), mitochondrial; assay: Binding affinity to recombinant human DHODH assessed as dissociation constant by surface plasmon resonance assay
[19] = system: MOLM-13; assay: Antitumor activity against human MOLM-13 cells xenografted in NSG mouse assessed as tumor growth inhibition at 0.25 mg/kg,po administrated daily for 10 days relative to control; type: functional; settings: MOLM-13, 240 h, time 10 day, read-out: TGI
[20] = Plasma protein binding in human at 1 uM incubated for 6.5 hrs by LC-MS/MS analysis; type: ADME, cell-free; settings: read-out: PPB (converted)
[21] = system: MOLM-13; assay: Antitumor activity against human MOLM-13 cells xenografted in NSG mouse assessed as tumor growth inhibition at 0.062 mg/kg,po administrated daily for 10 days relative to control; type: functional; settings: MOLM-13, 240 h, time 10 day, read-out: TGI

Activity [1]: Not Active
half-life [2]: > 3 h
half-life [3]: > 6.18 h
T1/2 [4]: 0.328 h
fold induction at 1 µM [5]: 3.2
logD [6]: 2.7
half-life [8]: > 3 h
fraction unbound at 6.5 h, 1 µM [9]: 0.088
half-life [10]: 0.958 h
Vd [11]: 1.2 L/kg
fold induction at 1 µM [12]: < 2
IC50 [13]: > 10000 nM
AUC(0-inf) [14]: 64600 ng·h/mL
half-life [15]: > 6.18 h
half-life [16]: 5.7 h
clearance [17]: 2.4 mL/min/kg
Kd [18]: 2.22 nM
fraction unbound at 6.5 h, 1 µM [20]: 0.099
SMILES: CCn1c(CO)nn(-c2cc3c(C(C)C)cn(-c4ccccc4C)c(=O)c3cc2F)c1=O
Activity [7]: Toxic
inhibition in vivo at 0.25 mg/kg [19]: 93%
inhibition in vivo at 0.062 mg/kg [21]: 75%
